# Data from ChEMBL document CHEMBL1201862, “PubChem BioAssay data set” (2004).
#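 Cells were grown in 96-well plates and exposed to each compound for 48 hours at five concentrations; endpoints were interpolated linearly between bracketing concentrations, or set to the highest concentration if not reached. GI50 marks 50% less growth.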 Activity calls are given as the source filed them. Rule as the data show it: active = GI50 up to about 1.1 µM and inactive = higher.
# What was measured:
# Assay in all cases: NCI tumour cell line growth inhibition, 48 h
# MDA-MB-231 = tested on: MDA-MB-231
# OVCAR-3 = tested on: OVCAR-3
# HT-29 = tested on: HT-29
# COLO 205 = tested on: COLO 205
# SNB-19 = tested on: SNB-19
# HOP-92 = tested on: HOP-92
# 786-0 = tested on: 786-0
# OVCAR-5 = tested on: OVCAR-5
# SW-620 = tested on: SW-620
# UACC-257 = tested on: UACC-257
# SK-MEL-2 = tested on: SK-MEL-2
# ACHN = tested on: ACHN
# NCI/ADR-RES = tested on: NCI/ADR-RES
# UO-31 = tested on: UO-31
# OVCAR-8 = tested on: OVCAR-8
# MDA-N = tested on: MDA-N
# SF-268 = tested on: SF-268
# HCT-116 = tested on: HCT-116
SMILES,GI50 (MDA-MB-231),GI50 (OVCAR-3),GI50 (HT-29),GI50 (COLO 205),GI50 (SNB-19),GI50 (HOP-92),GI50 (786-0),GI50 (OVCAR-5),GI50 (SW-620),GI50 (UACC-257),GI50 (SK-MEL-2),GI50 (ACHN),GI50 (NCI/ADR-RES),GI50 (UO-31),GI50 (OVCAR-8),GI50 (MDA-N),GI50 (SF-268),GI50 (HCT-116)
C=CCCCCCCCCCOC1C=CC(OC(C)=O)C(COC(C)=O)O1 (stereo not given),> 100 µM (inactive),44.4 µM (inactive),21.4 µM (inactive),51.6 µM (inactive),> 100 µM (inactive),58.2 µM (inactive),67.8 µM (inactive),> 100 µM (inactive),57 µM (inactive),29 µM (inactive),38.3 µM (inactive),65.5 µM (inactive),41.4 µM (inactive),44.8 µM (inactive),18.1 µM (inactive),44.3 µM (inactive),37.3 µM (inactive),53.2 µM (inactive)
C/C=C/C(C#N)(Cc1ccccc1)OP1(=O)OC(c2ccccc2)C(C)N1C (stereo not given),> 100 µM (inactive),56.8 µM (inactive),69.2 µM (inactive),> 100 µM (inactive),78.5 µM (inactive),73.3 µM (inactive),> 100 µM (inactive),> 100 µM (inactive),> 100 µM (inactive),65.8 µM (inactive),> 100 µM (inactive),84.1 µM (inactive),72.4 µM (inactive),55.3 µM (inactive),86.7 µM (inactive),88.1 µM (inactive),> 100 µM (inactive),> 100 µM (inactive)
O=C1C(c2ccccc2)=[N+]([O-])c2ccccc21,11.7 µM (inactive),13.6 µM (inactive),20.2 µM (inactive),16.2 µM (inactive),19 µM (inactive),6.79 µM (inactive),17.7 µM (inactive),22.4 µM (inactive),5.83 µM (inactive),13.3 µM (inactive),14.7 µM (inactive),19.2 µM (inactive),17.7 µM (inactive),16.2 µM (inactive),18.6 µM (inactive),3.29 µM (inactive),14.1 µM (inactive),5.78 µM (inactive)
O=c1[nH]c(=O)n(C2CC(O)C(COP(=O)(O)OC3CC(n4cc(F)c(=O)[nH]c4=O)OC3COP(=O)(O)OC3CC(n4cc(F)c(=O)[nH]c4=O)OC3COP(=O)(O)OC3CC(n4cc(F)c(=O)[nH]c4=O)OC3COP(=O)(O)OC3CC(n4cc(F)c(=O)[nH]c4=O)OC3COP(=O)(O)OC3CC(n4cc(F)c(=O)[nH]c4=O)OC3COP(=O)(O)OC3CC(n4cc(F)c(=O)[nH]c4=O)OC3COP(=O)(O)OC3CC(n4cc(F)c(=O)[nH]c4=O)OC3COP(=O)(O)OC3CC(n4cc(F)c(=O)[nH]c4=O)OC3COP(=O)(O)OC3CC(n4cc(F)c(=O)[nH]c4=O)OC3CO)O2)cc1F (stereo not given),9.33 µM (inactive),,0.481 µM (active),0.129 µM (active),0.169 µM (active),0.0202 µM (active),< 0.005 µM (active),,> 50 µM (inactive),0.578 µM (active),3.07 µM (inactive),< 0.005 µM (active),< 0.005 µM (active),< 0.005 µM (active),< 0.005 µM (active),0.0685 µM (active),< 0.005 µM (active),0.0109 µM (active)
COc1cccc(Cc2cc(=O)c3ccc(C)nc3[nH]2)c1,> 100 µM (inactive),> 100 µM (inactive),> 100 µM (inactive),> 100 µM (inactive),> 100 µM (inactive),> 100 µM (inactive),> 100 µM (inactive),> 100 µM (inactive),> 100 µM (inactive),> 100 µM (inactive),> 100 µM (inactive),,> 100 µM (inactive),> 100 µM (inactive),> 100 µM (inactive),> 100 µM (inactive),> 100 µM (inactive),> 100 µM (inactive)
COC(c1ccsc1)C(C#N)(C#N)/N=C/c1ccsc1 (stereo not given),7.4 µM (inactive),12.6 µM (inactive),12.5 µM (inactive),16.5 µM (inactive),23 µM (inactive),12 µM (inactive),17.3 µM (inactive),20.9 µM (inactive),14.6 µM (inactive),14.7 µM (inactive),19 µM (inactive),18.7 µM (inactive),17.7 µM (inactive),13.4 µM (inactive),18.1 µM (inactive),16 µM (inactive),16.1 µM (inactive),12.8 µM (inactive)
CC(=O)Oc1cc(S(=O)(=O)Nc2nc(N)n[nH]2)c(S)cc1Cl,> 100 µM (inactive),> 100 µM (inactive),> 100 µM (inactive),> 100 µM (inactive),> 100 µM (inactive),> 100 µM (inactive),> 100 µM (inactive),> 100 µM (inactive),> 100 µM (inactive),> 100 µM (inactive),> 100 µM (inactive),> 100 µM (inactive),> 100 µM (inactive),> 100 µM (inactive),> 100 µM (inactive),> 100 µM (inactive),,> 100 µM (inactive)
COc1ccc(N(C(=O)Nc2ccc(Cl)c(Cl)c2)C2c3cccn3C(=O)N2c2ccc(Cl)c(Cl)c2)cc1 (stereo not given),47.8 µM (inactive),,> 100 µM (inactive),> 100 µM (inactive),> 100 µM (inactive),51.3 µM (inactive),> 100 µM (inactive),16.4 µM (inactive),> 100 µM (inactive),> 100 µM (inactive),> 100 µM (inactive),> 100 µM (inactive),> 100 µM (inactive),> 100 µM (inactive),> 100 µM (inactive),87.7 µM (inactive),8.43 µM (inactive),17.3 µM (inactive)
CC1=NN(c2nc(N)nc(/C(C#N)=C\c3csc([N+](=O)[O-])c3)n2)C(C)(C)C1,26.9 µM (inactive),26.4 µM (inactive),37.3 µM (inactive),,,54.7 µM (inactive),17.6 µM (inactive),34.7 µM (inactive),68.7 µM (inactive),45.7 µM (inactive),28.9 µM (inactive),35 µM (inactive),27 µM (inactive),37.4 µM (inactive),25.1 µM (inactive),27.7 µM (inactive),21.8 µM (inactive),47.4 µM (inactive)
O=C(O)/C=C/c1ccc2c(c1)CC1(Cc3ccccc3C1)C2,> 100 µM (inactive),27.7 µM (inactive),39.8 µM (inactive),27.8 µM (inactive),,52.2 µM (inactive),> 100 µM (inactive),> 100 µM (inactive),,> 100 µM (inactive),39.3 µM (inactive),41.6 µM (inactive),76.7 µM (inactive),80 µM (inactive),66.1 µM (inactive),> 100 µM (inactive),,23 µM (inactive)
Cc1c(-c2ccccc2)oc(=O)c2ccccc12,16.7 µM (inactive),20.2 µM (inactive),15.5 µM (inactive),16 µM (inactive),30.7 µM (inactive),11.8 µM (inactive),24.2 µM (inactive),30.8 µM (inactive),,15.5 µM (inactive),20.4 µM (inactive),26.2 µM (inactive),28.4 µM (inactive),19 µM (inactive),27.1 µM (inactive),20 µM (inactive),17.4 µM (inactive),24.6 µM (inactive)
CN(/N=C/C=N/N(C)C1=NCCN1)C1=NCCN1,> 100 µM (inactive),> 100 µM (inactive),> 100 µM (inactive),> 100 µM (inactive),> 100 µM (inactive),> 100 µM (inactive),> 100 µM (inactive),> 100 µM (inactive),> 100 µM (inactive),> 100 µM (inactive),,> 100 µM (inactive),> 100 µM (inactive),> 100 µM (inactive),> 100 µM (inactive),> 100 µM (inactive),> 100 µM (inactive),> 100 µM (inactive)
NC(=O)NC(CC(=O)O)C(=O)O (stereo not given),> 100 µM (inactive),> 100 µM (inactive),> 100 µM (inactive),,> 100 µM (inactive),> 100 µM (inactive),> 100 µM (inactive),> 100 µM (inactive),> 100 µM (inactive),93.3 µM (inactive),> 100 µM (inactive),> 100 µM (inactive),> 100 µM (inactive),> 100 µM (inactive),> 100 µM (inactive),> 100 µM (inactive),> 100 µM (inactive),> 100 µM (inactive)
Oc1ccc(Oc2cc3c(cc2Oc2ccc(O)cc2)-c2nc-3nc3[nH]c(nc4nc(nc5[nH]c(n2)c2cc(Oc6ccc(O)cc6)c(Oc6ccc(O)cc6)cc52)-c2cc(Oc5ccc(O)cc5)c(Oc5ccc(O)cc5)cc2-4)c2cc(Oc4ccc(O)cc4)c(Oc4ccc(O)cc4)cc32)cc1,23.5 µM (inactive),> 100 µM (inactive),> 100 µM (inactive),> 100 µM (inactive),> 100 µM (inactive),> 100 µM (inactive),> 100 µM (inactive),85.5 µM (inactive),> 100 µM (inactive),> 100 µM (inactive),,> 100 µM (inactive),> 100 µM (inactive),> 100 µM (inactive),> 100 µM (inactive),> 100 µM (inactive),> 100 µM (inactive),> 100 µM (inactive)
COC1CCC(OS(C)(=O)=O)C(C)O1 (stereo not given),> 10 µM (inactive),> 10 µM (inactive),> 10 µM (inactive),> 10 µM (inactive),> 10 µM (inactive),5.89 µM (inactive),> 10 µM (inactive),> 10 µM (inactive),> 10 µM (inactive),> 10 µM (inactive),> 10 µM (inactive),> 10 µM (inactive),> 10 µM (inactive),,> 10 µM (inactive),> 10 µM (inactive),> 10 µM (inactive),> 10 µM (inactive)
